Experimental data taken from patent publication US10093629B2, “Heterocyclic compounds and their use as retinoid-related orphan receptor (ROR) gamma-T inhibitors” (Takeda Pharmaceutical Company Limited, priority 2014, dated 2018).
Read-outs that look alike come from different tables or passages of the source.

How the values were obtained:
RORγt [1] = biological target: T1, RORγt (Homo sapiens, UniProt P51449); experiment: RORγt binding test using fluorescent-labeled synthetic ligand (TR-FRET); conditions: read-out: binding inhibitory rate of fluorescent-labeled synthetic ligand to RORγt at test compound 1 μM
T1 sequence (P51449 1-497 isoform P51449-2): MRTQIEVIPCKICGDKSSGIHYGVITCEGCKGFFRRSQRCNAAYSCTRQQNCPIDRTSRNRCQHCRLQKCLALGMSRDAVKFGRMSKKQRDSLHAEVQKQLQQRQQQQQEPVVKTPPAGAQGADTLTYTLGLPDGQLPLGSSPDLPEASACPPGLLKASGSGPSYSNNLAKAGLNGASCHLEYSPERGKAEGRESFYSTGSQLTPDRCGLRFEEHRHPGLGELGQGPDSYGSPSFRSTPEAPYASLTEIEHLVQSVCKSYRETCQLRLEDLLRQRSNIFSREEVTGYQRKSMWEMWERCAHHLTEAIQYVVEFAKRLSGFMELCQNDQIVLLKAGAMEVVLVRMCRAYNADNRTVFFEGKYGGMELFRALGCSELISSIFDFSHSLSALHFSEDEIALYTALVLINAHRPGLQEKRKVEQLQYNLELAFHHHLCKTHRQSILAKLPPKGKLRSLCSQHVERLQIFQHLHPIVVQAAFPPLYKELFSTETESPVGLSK
Method: RORγt Binding Test using Fluorescent-Labeled Synthetic Ligand
The binding activity of the test compound to RORγt was measured by a time resolved fluorescence resonance energy transfer method (TR-FRET) utilizing histidine-tagged RORγt, fluorescent-labeled synthetic ligand and terbium-labeled anti-histidine tag antibody (Invitrogen). First, a test compound diluted with an assay buffer (20 mM Tris-HCl (pH 7.5), 100 mM NaCl, 1 mM DTT, 0.1% BSA) was added to a 384 well plate by 3 μL. Then, RORγt diluted with an assay buffer to 240 nM was added by 3 μL, after which fluorescent-labeled synthetic ligand diluted with the assay buffer to 12 μM was added by 3 μL, and the mixture was stood at room temperature for 20 min. Thereafter, a terbium-labeled anti-histidine tag antibody diluted with the assay buffer to 8 nM was added by 3 μL. The mixture was stood at room temperature for 20 min, and fluorescence intensity (excitation wavelength 320 nm, fluorescence wavelength 520 nm, delay time 100 microseconds) was measured by Envision (PerkinElmer).

RORγt [2] = biological target: T1, RORγt; experiment: Cofactor recruitment test (Alpha Screen, biotinylated SRC-1 peptide); assay type: biochemical; conditions: read-out: signal value inhibitory rate at test compound 1 μM
Method: Cofactor Recruitment Test
Cofactor recruitment test was performed by Alpha Screen (Histidine Detection Kit, PerkinElmer) method. First, a test compound was diluted with an assay buffer (50 mM Tris-HCl (pH 7.5), 50 mM KCl, 1 mM DTT, 0.1% BSA) and added to a 384 well plate by 5 μL. […] The mixture was stood in a dark place for 1 hr, and the signal value was measured by Envision (PerkinElmer).

RORγt [3] = biological target: T1, RORγt; experiment: Jurkat reporter test (human IL-17 ROR response element luciferase, RORγt vector); assay type: cell-based; conditions: test compound 3 μM, Jurkat cells, read-out: luminescence level inhibitory rate at test compound 3 μM
Method: The Jurkat cells used for the reporter test were cultured in a culture medium (RPMI (Invitrogen), 10% FCS (AusGeneX), 100 U/mL penicillin, 100 μg/mL streptomycin). On the day of the test, 4×10^7 cells were recovered by a centrifugal operation (1000 rpm, 5 min.) and suspended in PBS (phosphate buffered saline) (Invitrogen). Thereafter, the cells were recovered again by a centrifugal operation, and suspended in 2 mL of R buffer (NEON transfection kit, Invitrogen). […] Gene transfer was performed by Electroporation apparatus (NEON, Invitrogen) under the conditions of pulse voltage 1350 V, interval 10 milliseconds, number of times 3. The cells after gene transfer were suspended in 40 mL of a reaction medium (RPMI, 10% Lipid reduced FCS (HyClone), 10 mM HEPES (pH 7.5), 100 U/mL penicillin, 100 μg/mL streptomycin, 5 μM lovastatin), and plated in a 96 well plate by 90 μL. A test compound diluted with the reaction medium was added by 10 μL, and the cells were cultured overnight in an incubator. Bright-Glo (Promega) was added by 100 μL, and the mixture was stirred at room temperature for 10 min, and the luminescence level was measured by Envision (PerkinElmer).

inhibition at 1 µM (RORγt [1]; test compound 1 μM) [%] | inhibition at 1 µM (RORγt [2]; test compound 1 μM) [%] | inhibition at 3 µM (RORγt [3]; Jurkat) [%] | SMILES | inhibition at 1 µM (RORγt [1]) [%] | inhibition at 1 µM (RORγt [2]) [%] | inhibition at 3 µM (RORγt [3]) [%]
 |  |  | COc1ccc2c(c1)CCN(C(=O)C1CC1C(=O)O)[C@H]2C(=O)Nc1cc(F)c([Si](C)(C)C)c(F)c1 (single isomer, unassigned) [Example 3] | 102 | 84 | 97
 |  |  | COc1ccc2c(c1)CCN(C(=O)[C@H]1C[C@H](C(=O)O)C1)[C@H]2C(=O)Nc1cc(F)c([Si](C)(C)C)c(F)c1 [Example 12, trans-3-(((1R)-1-((3,5-difluoro-4-(trimethylsilyl)phenyl)carbamoyl)-6-methoxy-3,4-dihydroisoquinolin-2(1H)-yl)carbonyl)cyclobutanecarboxylic acid] | 102 | 91 | 99
 |  |  | COc1ccc2c(n1)CCN(C(=O)[C@@H]1C[C@H]1CC(=O)O)[C@H]2C(=O)Nc1cc(F)c([Si](C)(C)C)c(F)c1 [Example 14, ((1S,2R)-2-(((5R)-5-((3,5-difluoro-4-(trimethylsilyl)phenyl)carbamoyl)-2-methoxy-7,8-dihydro-1,6-naphthyridin-6(5H)-yl)carbonyl)cyclopropyl)acetic acid] | 101 | 86 | 100
101 | 85 | 99 | CCOc1ccc2c(c1)CCN(C(=O)[C@H]1C[C@@H](CC(=O)O)C1)[C@H]2C(=O)Nc1cc(F)c(C(C)(C)COC)c(F)c1 [Example 17, (cis-3-(((1R)-1-((3,5-difluoro-4-(1-methoxy-2-methylpropan-2-yl)phenyl)carbamoyl)-6-ethoxy-3,4-dihydroisoquinolin-2(1H)-yl)carbonyl)cyclobutyl)acetic acid] |  |  | 
 |  |  | COc1ccc2c(c1)CCN(C(=O)[C@H]1C[C@H](CC(=O)O)C1)[C@H]2C(=O)Nc1cc(F)c([Si](C)(C)C)c(F)c1 [Example 27, (trans-3-(((1R)-1-((3,5-difluoro-4-(trimethylsilyl)phenyl)carbamoyl)-6-methoxy-3,4-dihydroisoquinolin-2(1H)-yl)carbonyl)cyclobutyl)acetic acid] | 102 | 91 | 103
 |  |  | COc1ccc2c(c1)CCN(C(=O)[C@@H]1C[C@H]1CC(=O)O)[C@H]2C(=O)Nc1cc(F)c([Si](C)(C)C)c(F)c1 [Example 30, ((1S,2R)-2-(((1R)-1-((3,5-difluoro-4-(trimethylsilyl)phenyl)carbamoyl)-6-methoxy-3,4-dihydroisoquinolin-2(1H)-yl)carbonyl)cyclopropyl)acetic acid] | 101 | 90 | 100
 |  |  | COc1ccc2c(c1)CCN(C(=O)[C@H]1C[C@H](CC(=O)O)C1)[C@H]2C(=O)Nc1ccc([Si](C)(C)C)c(F)c1 [Example 34, (trans-3-(((1R)-1-((3-fluoro-4-(trimethylsilyl)phenyl)carbamoyl)-6-methoxy-3,4-dihydroisoquinolin-2(1H)-yl)carbonyl)cyclobutyl)acetic acid] | 102 | 88 | 100
102 | 83 | 99 | COCC(C)(C)c1c(F)cc(NC(=O)[C@H]2c3ccc(OC)cc3CCN2C(=O)[C@H]2C[C@@H](CC(=O)O)C2)cc1F [Example 35, (cis-3-(((1R)-1-((3,5-difluoro-4-(1-methoxy-2-methylpropan-2-yl)phenyl)carbamoyl)-6-methoxy-3,4-dihydroisoquinolin-2(1H)-yl)carbonyl)cyclobutyl)acetic acid] |  |  | 
102 | 72 | 102 | COc1ccc2c(n1)CCN(C(=O)[C@H]1C[C@@H](C(=O)OCc3ccccc3)C1)[C@H]2C(=O)Nc1cc(F)c2c(c1)CCC2(C)C [Example 36, benzyl cis-3-(((5R)-5-((7-fluoro-1,1-dimethyl-2,3-dihydro-1H-inden-5-yl)carbamoyl)-2-methoxy-7,8-dihydro-1,6-naphthyridin-6(5H)-yl)carbonyl)cyclobutanecarboxylate] |  |  | 
